Where two headings read alike, the source gives them in different places. Some results are limits rather than exact numbers.

This assay has as its target 11β-HSD1 (Homo sapiens, UniProt P28845). The assay is described as follows: biochemical. The note with it: for IC50: IC50 Range.
[1] abbreviates: Biological Test Example 1, microsomes from CHO cells overexpressing human 11β-HSD1.
[2] abbreviates: read-out: Average % inhibition at 111.1 nM, Biological Test Example 1, 111.1 nM compound.
[3] abbreviates: read-out: Average % inhibition at 100 nM, Biological Test Example 1, 100 nM compound.
[4] abbreviates: read-out: Average % inhibition at 100 nM, Biological Test Example 1, 100 nM.

11β-HSD1, sequence (P28845 whole entry): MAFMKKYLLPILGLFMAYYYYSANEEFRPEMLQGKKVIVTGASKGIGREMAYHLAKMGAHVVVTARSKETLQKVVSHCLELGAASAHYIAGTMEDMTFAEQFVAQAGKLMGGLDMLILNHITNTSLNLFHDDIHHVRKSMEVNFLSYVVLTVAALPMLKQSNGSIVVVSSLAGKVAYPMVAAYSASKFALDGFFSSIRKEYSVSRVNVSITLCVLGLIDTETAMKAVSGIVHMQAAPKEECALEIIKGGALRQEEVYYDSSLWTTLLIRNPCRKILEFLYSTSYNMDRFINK

For `CC1(c2ccccc2)CCN(Cc2cccc(Br)c2)C(=O)O1` (centres unmarked) [EXAMPLE 71, 3-(3-bromobenzyl)-6-methyl-6-phenyl-1,3-oxazinan-2-one], the IC50 under setting [1] was 100 to 1000 nM. Still for that read-out and setting: the value for `C=CC[C@]1(c2ccc(F)cc2)CCN([C@H](C)c2ccc(Cl)c(F)c2)C(=O)O1` (single isomer, unassigned) [EXAMPLE 497 Isomer 4] was under 100 nM. Under setting [1], `CC1(c2ccccc2)CCN(Cc2ccccc2Br)C(=O)O1` (centres unmarked) [EXAMPLE 72, 3-(2-bromobenzyl)-6-methyl-6-phenyl-1,3-oxazinan-2-one] gave an IC50 of under 100 nM. Besides, the inhibition at 0.1111 µM under setting [2] was found to be 77.5%.

Turning to `CCC[C@]1(c2ccccc2)CCN([C@@H](C)c2ccc(-c3ccc(F)cc3F)cc2)C(=O)O1` [EXAMPLE 226, (R)-3-((S)-1-(2′,4′-difluorobiphenyl-4-yl)ethyl)-6-phenyl-6-propyl-1,3-oxazinan-2-one], the half-inhibitory concentration (IC50) under setting [1] was under 100 nM. For the same compound, the inhibition at 0.1 µM under setting [3] was determined as 90.7%.

In turn, `O=C1O[C@@](CCCO)(c2ccc(F)cc2)CCN1[C@H]1CCCN(Cc2ccccc2)C1` [EXAMPLE 341, (R)-3-((S)-1-benzylpiperidin-3-yl)-6-(4-fluorophenyl)-6-(3-hydroxypropyl)-1,3-oxazinan-2-one] returned an IC50 of under 100 nM. Also, the inhibition at 0.1 µM (read-out: Average % inhibition at 100 nM) was 82%. Take `C[C@@H](c1ccc(Cl)cc1)N1CC[C@](CCCO)(c2ccccc2)OC1=O` [EXAMPLE 403, (R)-3-((S)-1-(4-chlorophenyl)ethyl)-6-(3-hydroxypropyl)-6-phenyl-1,3-oxazinan-2-one]: the IC50 under setting [1] was under 100 nM. The inhibition at 0.1 µM under setting [4] turned out to be 99.5%. As to `CC(=O)N(C)CC[C@]1(c2ccccc2)CCN([C@@H](C)c2ccc(Br)cc2)C(=O)O1` [EXAMPLE 586, N-(2-((R)-3-((S)-1-(4-bromophenyl)ethyl)-2-oxo-6-phenyl-1,3-oxazinan-6-yl)ethyl)-N-methylacetamide], the half-inhibitory concentration (IC50) under setting [1] is under 100 nM. Besides, the inhibition at 0.1 µM under setting [4] came out at 98%. Take `C[C@@H](c1ccc(C(=O)O)cc1)N1CC[C@](CCCO)(c2ccc(F)cc2)OC1=O` [EXAMPLE 142, 4-((S)-1-((R)-6-(4-fluorophenyl)-6-(3-hydroxypropyl)-2-oxo-1,3-oxazinan-3-yl)ethyl)benzoic acid]: the half-inhibitory concentration (IC50) under setting [1] lay within 100 to 1000 nM. The inhibition at 0.1 µM under setting [3] came to 34.4%. For the same compound, under setting [2], the inhibition at 0.1111 µM came to 27.4%.

Consider `CC1(c2ccccn2)CCN(c2cccc(-c3ccc(F)cc3F)c2)C(=O)O1` (centres unmarked) [EXAMPLE 80, 3-(2′,4′-difluorobiphenyl-3-yl)-6-methyl-6-(pyridin-2-yl)-1,3-oxazinan-2-one], for which the concentration for half-maximal inhibition (IC50) under setting [1] was under 100 nM. Also, the inhibition at 0.1111 µM (read-out: Average % inhibition at 111.1 nM) was found to be 77.8%. Compound `Cc1ccccc1C1(C)CCN([C@@H](C)c2ccccc2)C(=O)O1` (single isomer, unassigned) [EXAMPLE 86 Isomer 1] had an IC50 under setting [1] of 100 to 1000 nM. The inhibition at 0.1111 µM under setting [2] came out at 43.3%.

For the compound `CC[C@@H](c1ccc(-c2ccc(F)cc2F)cc1)N1CC[C@](CCCO)(c2ccccc2)OC1=O` [EXAMPLE 253, (R)-3-((S)-1-(2′,4′-difluorobiphenyl-4-yl)propyl)-6-(3-hydroxypropyl)-6-phenyl-1,3-oxazinan-2-one], the IC50 under setting [1] was under 100 nM. The inhibition at 0.1 µM under setting [3] worked out at 93.3%. For `C=CCC1(c2ccc(F)cc2)CCN([C@@H](CC)c2ccc(Br)cc2)C(=O)O1` (single isomer, unassigned) [EXAMPLE 130 Isomer 1], in that order: under 100 nM and 92.2%. `Cc1ccc([C@H](C)N2CC[C@](CCC(N)=O)(c3ccccc3)OC2=O)cc1` [EXAMPLE 424, 3-((R)-2-oxo-6-phenyl-3-((S)-1-p-tolylethyl)-1,3-oxazinan-6-yl)propanamide] returned a half-maximal inhibitory concentration (IC50) under setting [1] of under 100 nM. For the same compound, under setting [4], the inhibition at 0.1 µM was determined as 97%. `Cc1ccc([C@H](C)N2CC[C@](CCCNS(C)(=O)=O)(c3ccc(F)cc3)OC2=O)cc1` [EXAMPLE 420, N-(3-((R)-6-(4-fluorophenyl)-2-oxo-3-((S)-1-p-tolylethyl)-1,3-oxazinan-6-yl)propyl)methanesulfonamide] yielded a 50% inhibitory concentration (IC50) under setting [1] of under 100 nM. Also, the inhibition at 0.1 µM under setting [4] came out at 97.3%. Under setting [1], `CC[C@@H](c1ccc(-c2ccc(F)cc2F)cc1)N1CC[C@](CCCO)(c2ccc(F)cc2)OC1=O` [EXAMPLE 261, (R)-3-((S)-1-(2′,4′-difluorobiphenyl-4-yl)propyl)-6-(4-fluorophenyl)-6-(3-hydroxypropyl)-1,3-oxazinan-2-one] had an IC50 of under 100 nM. Further, under setting [3], the inhibition at 0.1 µM stood at 96.2%.

Compound `C[C@@H](c1ccc(F)cc1)N1CC[C@](CCCNS(C)(=O)=O)(c2ccc(F)cc2)OC1=O` [EXAMPLE 409, N-(3-((R)-6-(4-fluorophenyl)-3-((S)-1-(4-fluorophenyl)ethyl)-2-oxo-1,3-oxazinan-6-yl)propyl)methanesulfonamide] registered an IC50 under setting [1] of under 100 nM. The inhibition at 0.1 µM under setting [4] was 91.6%. `C[C@@H](C1CCCCC1)N1CC[C@](CC(O)CO)(c2ccc(F)cc2)OC1=O` (single isomer, unassigned) [EXAMPLE 197 Isomer 1]: under setting [1], the IC50 is under 100 nM. Also, under setting [3], the inhibition at 0.1 µM turned out to be 90.4%. Compound `C[C@@H](c1ccc(-c2ccc(CO)cc2)cc1)N1CC[C@](CCCO)(c2ccccc2)OC1=O` [EXAMPLE 494, (R)-3-((S)-1-(4′-(hydroxymethyl)biphenyl-4-yl)ethyl)-6-(3-hydroxypropyl)-6-phenyl-1,3-oxazinan-2-one] registered an IC50 under setting [1] of under 100 nM. Moreover, under setting [4], the inhibition at 0.1 µM is 100%. Compound `C=CC[C@]1(c2ccc(F)cc2)CCN([C@@H](C)c2ccc(C(=O)N3CCCCC3)cc2)C(=O)O1` [EXAMPLE 243, (R)-6-allyl-6-(4-fluorophenyl)-3-((S)-1-(4-(piperidine-1-carbonyl)phenyl)ethyl)-1,3-oxazinan-2-one] came in with an IC50 under setting [1] of under 100 nM. Also, under setting [3], the inhibition at 0.1 µM was 38.9%. Under setting [1], `C[C@@H](c1ccc(OCC(F)(F)F)cc1)N1CC[C@](CCC(N)=O)(c2ccc(F)cc2)OC1=O` [EXAMPLE 505, 3-((R)-6-(4-fluorophenyl)-2-oxo-3-((S)-1-(4-(2,2,2-trifluoroethoxy)phenyl)ethyl)-1,3-oxazinan-6-yl)propanamide] yielded an IC50 of under 100 nM. Also, the inhibition at 0.1 µM under setting [4] was found to be 96.3%. For the compound `Cc1cc(-c2ccc([C@H](C)N3CC[C@](CC(C)(C)O)(c4ccc(F)cc4)OC3=O)cc2)cc(C)[n+]1[O-]` [EXAMPLE 557, 4-(4-((S)-1-((S)-6-(4-fluorophenyl)-6-(2-hydroxy-2-methylpropyl)-2-oxo-1,3-oxazinan-3-yl)ethyl)phenyl)-2,6-dimethylpyridine 1-oxide], the inhibition at 0.1111 µM (read-out: Average % inhibition at 111.1 nM, Biological Test Example 1, 111.1 nM) amounted to 89.7%. The compound `C[C@@H](c1ccc(Br)cc1)N1CC[C@](CCN2CCCC2)(c2ccc(F)cc2)OC1=O` [EXAMPLE 376, (R)-3-((S)-1-(4-bromophenyl)ethyl)-6-(4-fluorophenyl)-6-(2-(pyrrolidin-1-yl)ethyl)-1,3-oxazinan-2-one] returned an IC50 under setting [1] of under 100 nM. The inhibition at 0.1 µM under setting [4] was found to be 50.3%.

On to `O=C1OC(CCO)(c2ccccc2)CCN1c1ccc(F)c(-c2ccc(F)cc2Cl)c1` (centres unmarked) [EXAMPLE 101, 3-(2′-chloro-4′,6-difluorobiphenyl-3-yl)-6-(2-hydroxyethyl)-6-phenyl-1,3-oxazinan-2-one], for which, under setting [1], the half-maximal inhibitory concentration (IC50) is under 100 nM. Besides, the inhibition at 0.1111 µM under setting [2] turned out to be 84.4%.

The term IC50 denotes the concentration that gives 50% inhibition. Read a low IC50 as higher potency. A word on the inhibition: it is the relative decrease from the control value, in per cent.

The values above are taken from patent US8575156B2, “Cyclic inhibitors of 11β-hydroxysteroid dehydrogenase 1” (Vitae Pharmaceuticals, Inc., priority 2007, dated 2013).
